Experimental data from patent US20250368666A1, “INDAZOLE COMPOUNDS” (TYRA BIOSCIENCES, INC., priority 2022, published 2025).

How the values were obtained:
FGFR1 = target: T1, FGFR1 (Homo sapiens, UniProt P11362); assay: Kinase binding assay (kinase-tagged T7 phage, affinity beads, qPCR), Kd; conditions: read-out: FGFR1 (Kd nM)
T1 construct: made in house; host or cells: E. coli (BL21-derived), T7 phage
Outline: (§1)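 Phage-tagged kinase capture on small-molecule affinity resin, compound competition, qPCR quantitation; Kd from Levenberg-Marquardt Hill fit.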

FGFR2 = target: T2, FGFR2 (Homo sapiens, UniProt P21802); assay: as above; conditions: read-out: FGFR2 (Kd nM)
T2 construct: made in house; host or cells: E. coli (BL21-derived), T7 phage
Outline: as §1

FGFR3 = target: T3, FGFR3 (Homo sapiens, UniProt P22607); assay: as above; conditions: read-out: FGFR3 (Kd nM)
T3 construct: made in house; host or cells: E. coli (BL21-derived), T7 phage
Outline: as §1

FGFR3 (V555M) = target: T4, FGFR3 (V555M) (Homo sapiens, UniProt P22607, V555M); assay: as above; conditions: V555M mutant; read-out: FGFR3 (V555M) (Kd nM)
T4 construct: made in house; host or cells: E. coli (BL21-derived), T7 phage
Outline: as §1

FGFR4 = target: T5, FGFR4 (Homo sapiens, UniProt P22455); assay: as above; conditions: read-out: FGFR4 (Kd nM)
T5 construct: made in house; host or cells: E. coli (BL21-derived), T7 phage
Outline: as §1

[1] = tested on: HuH7 cell line (FGF19 amplification); assay: Cancer cell line cell viability assay (Cell Titer-Glo), 120 hr; assay type: cell-based; conditions: Homo sapiens, Huh-7
Outline: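 ATP-based luminescence (Cell Titer-Glo 2.0) measured viability after 72 h (KG-1, RT112/84) or 120 h (MDA-MB-453, HuH7) compound exposure. Dosing was nine 4-fold steps starting at 3 μM, in triplicate, on overnight-plated cells. IC50 came from a variable-slope 4-parameter fit of % DMSO control.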

T2 sequence (P21802 22-821): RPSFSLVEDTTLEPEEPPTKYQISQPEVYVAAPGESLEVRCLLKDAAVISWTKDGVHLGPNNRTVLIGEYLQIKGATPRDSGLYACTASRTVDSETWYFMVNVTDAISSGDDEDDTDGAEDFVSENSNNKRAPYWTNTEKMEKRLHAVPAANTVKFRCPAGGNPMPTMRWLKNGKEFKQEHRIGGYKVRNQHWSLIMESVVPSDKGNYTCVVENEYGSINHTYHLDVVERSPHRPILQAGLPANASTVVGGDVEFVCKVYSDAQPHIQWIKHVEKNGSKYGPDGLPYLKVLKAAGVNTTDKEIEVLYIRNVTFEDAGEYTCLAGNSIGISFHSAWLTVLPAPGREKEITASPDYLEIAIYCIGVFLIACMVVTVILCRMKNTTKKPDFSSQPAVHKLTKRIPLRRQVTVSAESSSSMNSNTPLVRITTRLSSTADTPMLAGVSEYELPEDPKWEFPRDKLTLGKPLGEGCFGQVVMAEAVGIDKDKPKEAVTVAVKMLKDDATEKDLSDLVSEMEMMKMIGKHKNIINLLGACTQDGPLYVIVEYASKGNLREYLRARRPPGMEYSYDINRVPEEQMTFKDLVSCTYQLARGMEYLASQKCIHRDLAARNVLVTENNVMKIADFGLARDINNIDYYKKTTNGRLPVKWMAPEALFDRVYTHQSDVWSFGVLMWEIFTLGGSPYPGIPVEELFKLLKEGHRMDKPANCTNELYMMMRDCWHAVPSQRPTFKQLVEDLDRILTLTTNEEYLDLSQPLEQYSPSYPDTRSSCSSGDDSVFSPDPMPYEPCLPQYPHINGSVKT
T5 sequence (P22455 22-802): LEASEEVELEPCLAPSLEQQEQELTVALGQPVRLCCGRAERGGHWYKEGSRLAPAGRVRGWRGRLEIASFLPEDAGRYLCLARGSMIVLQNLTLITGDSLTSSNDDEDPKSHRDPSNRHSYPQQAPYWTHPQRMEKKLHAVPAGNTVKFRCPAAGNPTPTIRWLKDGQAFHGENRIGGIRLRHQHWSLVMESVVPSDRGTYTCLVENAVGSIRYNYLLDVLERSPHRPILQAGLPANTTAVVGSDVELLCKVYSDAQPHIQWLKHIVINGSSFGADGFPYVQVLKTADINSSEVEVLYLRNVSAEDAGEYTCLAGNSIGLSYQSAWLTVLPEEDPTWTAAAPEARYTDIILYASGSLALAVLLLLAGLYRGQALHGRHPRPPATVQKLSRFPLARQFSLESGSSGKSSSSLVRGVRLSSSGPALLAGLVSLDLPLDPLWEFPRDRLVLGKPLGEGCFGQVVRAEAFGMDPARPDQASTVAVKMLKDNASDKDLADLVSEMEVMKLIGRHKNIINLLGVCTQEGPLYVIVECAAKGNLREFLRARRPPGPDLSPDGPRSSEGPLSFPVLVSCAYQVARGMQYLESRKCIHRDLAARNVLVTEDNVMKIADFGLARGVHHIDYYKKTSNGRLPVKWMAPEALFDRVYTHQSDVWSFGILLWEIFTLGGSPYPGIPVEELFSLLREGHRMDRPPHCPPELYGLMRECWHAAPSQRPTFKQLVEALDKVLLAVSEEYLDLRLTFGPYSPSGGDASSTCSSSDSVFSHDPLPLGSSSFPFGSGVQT
T1 sequence (P11362 22-822): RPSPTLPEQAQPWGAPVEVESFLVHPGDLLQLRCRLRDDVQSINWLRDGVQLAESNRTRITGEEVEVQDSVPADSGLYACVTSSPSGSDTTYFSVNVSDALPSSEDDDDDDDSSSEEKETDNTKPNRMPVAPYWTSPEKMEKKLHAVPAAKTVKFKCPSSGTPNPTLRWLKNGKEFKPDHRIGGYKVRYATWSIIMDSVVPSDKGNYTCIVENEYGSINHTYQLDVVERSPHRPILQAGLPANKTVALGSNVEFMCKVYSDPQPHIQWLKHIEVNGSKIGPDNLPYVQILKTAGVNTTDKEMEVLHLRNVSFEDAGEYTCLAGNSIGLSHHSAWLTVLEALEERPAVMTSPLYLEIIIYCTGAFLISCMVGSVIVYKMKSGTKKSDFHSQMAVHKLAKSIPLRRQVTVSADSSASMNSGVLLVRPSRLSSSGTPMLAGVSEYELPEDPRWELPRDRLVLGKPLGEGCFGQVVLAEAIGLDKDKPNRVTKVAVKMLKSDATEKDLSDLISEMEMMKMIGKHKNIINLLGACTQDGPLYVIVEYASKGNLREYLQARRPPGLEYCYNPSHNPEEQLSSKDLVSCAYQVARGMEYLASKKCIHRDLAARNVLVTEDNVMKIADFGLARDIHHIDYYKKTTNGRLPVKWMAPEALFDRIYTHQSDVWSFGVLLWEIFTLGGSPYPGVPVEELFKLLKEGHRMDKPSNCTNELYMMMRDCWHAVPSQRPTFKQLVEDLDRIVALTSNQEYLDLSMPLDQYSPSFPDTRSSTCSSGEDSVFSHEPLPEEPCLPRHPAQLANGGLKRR
T3 sequence (P22607 23-806): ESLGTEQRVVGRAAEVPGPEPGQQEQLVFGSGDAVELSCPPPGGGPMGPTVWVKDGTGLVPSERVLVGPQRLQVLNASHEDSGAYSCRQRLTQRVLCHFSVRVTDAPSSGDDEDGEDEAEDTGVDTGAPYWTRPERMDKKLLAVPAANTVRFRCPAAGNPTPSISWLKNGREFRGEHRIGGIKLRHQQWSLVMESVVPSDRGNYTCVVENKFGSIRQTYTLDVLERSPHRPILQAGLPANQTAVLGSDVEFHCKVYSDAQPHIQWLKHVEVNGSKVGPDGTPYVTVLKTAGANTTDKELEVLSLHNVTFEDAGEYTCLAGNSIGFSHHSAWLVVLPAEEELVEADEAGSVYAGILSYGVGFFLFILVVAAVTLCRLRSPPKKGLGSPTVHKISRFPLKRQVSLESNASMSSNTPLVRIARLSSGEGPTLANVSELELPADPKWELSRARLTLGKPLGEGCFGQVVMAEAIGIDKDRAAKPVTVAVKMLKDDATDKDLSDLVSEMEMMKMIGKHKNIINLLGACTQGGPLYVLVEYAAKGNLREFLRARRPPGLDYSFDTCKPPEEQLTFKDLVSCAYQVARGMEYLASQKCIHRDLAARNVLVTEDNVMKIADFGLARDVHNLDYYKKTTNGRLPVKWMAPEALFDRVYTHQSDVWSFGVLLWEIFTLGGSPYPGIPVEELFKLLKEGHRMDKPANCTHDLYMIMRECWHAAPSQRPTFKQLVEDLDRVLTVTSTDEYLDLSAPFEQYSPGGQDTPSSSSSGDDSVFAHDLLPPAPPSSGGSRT
T4 sequence (P22607 23-806 V555M): as the sequence (P22607 23-806) above, with V533M counted along it

Row | SMILES | Kd (FGFR1) | Kd (FGFR2) | Kd (FGFR3) | Kd (FGFR3 (V555M)) | Kd (FGFR4) | IC50 [1]
1 | Cc1ncc(Cl)c([C@@H](C)Oc2ccc3[nH]nc(-c4cnc(N5CC(C)(N)C5)c(C#N)c4)c3c2)c1Cl [Example 39, 2-(3-amino-3-methyl-azetidin-1-yl)-5-[5-[(1R)-1-(3,5-dichloro-2-methyl-4-pyridyl)ethoxy]-1H-indazol-3-yl]pyridine-3-carbonitrile] | 50 to 300 nM | 50 to 300 nM | 1 to 50 nM | 1 to 50 nM | 1 to 50 nM | 50 to 200 nM
2 | Cc1ncc(Cl)c([C@@H](C)Oc2ccc3[nH]nc(-c4cnc(N5CC(C)(N(C)C)C5)c(C#N)c4)c3c2)c1Cl [Example 45, 5-[5-[(1R)-1-(3,5-dichloro-2-methyl-4-pyridyl)ethoxy]-1H-indazol-3-yl]-2-[3-(dimethylamino)-3-methyl-azetidin-1-yl]pyridine-3-carbonitrile] | 50 to 300 nM | 50 to 300 nM | 1 to 50 nM | 1 to 50 nM | 1 to 50 nM | 50 to 200 nM
3 | Cc1ncc(Cl)c([C@@H](C)Oc2ccc3[nH]nc(-c4cnc(N5CC(C)(OC6CCC6)C5)c(C#N)c4)c3c2)c1Cl [Example 46, (R)-2-(3-Cyclobutoxy-3-methylazetidin-1-yl)-5-(5-(1-(3,5-dichloro-2-methyl-pyridin-4-yl)ethoxy)-1H-indazol-3-yl)nicotinonitrile] | > 1000 nM | > 1000 nM | 300 to 1000 nM | 50 to 300 nM | 1 to 50 nM | > 1000 nM
4 | COc1cc2[nH]nc(-c3cnc(N4CC5(CC5)C4)nc3)c2cc1O[C@H](C)c1c(Cl)cncc1Cl [Example 62, 3-[2-(5-azaspiro[2.3]hexan-5-yl)pyrimidin-5-yl]-5-[(1R)-1-(3,5-dichloro-4-pyridyl)ethoxy]-6-methoxy-1H-indazole] | 1 to 50 nM | 1 to 50 nM | 1 to 50 nM | 1 to 50 nM | 1 to 50 nM | 0.1 to 50 nM
5 | C[C@@H](Oc1cc2c(-c3cnc(N4CC(C)(N5CCOCC5)C4)c(C#N)c3)n[nH]c2cc1F)c1c(Cl)cncc1Cl [Example 124, (R)-5-(5-(1-(3,5-dichloropyridin-4-yl)ethoxy)-6-fluoro-1H-indazol-3-yl)-2-(3-methyl-3-morpholinoazetidin-1-yl)nicotinonitrile] | 50 to 300 nM | 50 to 300 nM | 1 to 50 nM | 1 to 50 nM | 1 to 50 nM | 50 to 200 nM
6 | C[C@@H](Oc1cc2c(-c3cnc(N4CC(C)(N5CCC5)C4)c(C#N)c3)n[nH]c2cc1F)c1c(Cl)cncc1Cl [Example 136, (R)-5-(5-(1-(3,5-dichloropyridin-4-yl)ethoxy)-6-fluoro-1H-indazol-3-yl)-2-(3′-methyl-[1,3′-biazetidin]-1′-yl)nicotinonitrile] | 1 to 50 nM | 1 to 50 nM | 1 to 50 nM | 1 to 50 nM | 1 to 50 nM | 50 to 200 nM
7 | C[C@@H](Oc1cc2c(-c3cnc(N4CC(C)(CN5CCOCC5)C4)c(C#N)c3)n[nH]c2cc1F)c1c(Cl)cncc1Cl [Example 137, (R)-5-(5-(1-(3,5-dichloropyridin-4-yl)ethoxy)-6-fluoro-1H-indazol-3-yl)-2-(3-methyl-3-(morpholinomethyl)aze-tidin-1-yl)nicotinonitrile] | 50 to 300 nM | 50 to 300 nM | 1 to 50 nM | 1 to 50 nM | 1 to 50 nM | 50 to 200 nM
8 | COc1cc2[nH]nc(-c3cnc(N4CC(C)(NC(C)C)C4)c(C#N)c3)c2cc1O[C@@H](C)c1c(Cl)cncc1Cl [Example 330, (S)-5-(5-(1-(3,5-dichloropyridin-4-yl)ethoxy)-6-methoxy-1H-indazol-3-yl)-2-(3-(isopropylamino)-3-methylazetidin-1-yl)nicotinonitrile] | 300 to 1000 nM | 300 to 1000 nM | 50 to 300 nM | 50 to 300 nM | 1 to 50 nM | 200 to 1000 nM
